Reference: patent US9889099B2, “Method and composition for enhancing milk production” (LAND O'LAKES, INC., priority 1999, dated 2018)

Test system: lactating cows
Assay: Example 1: feeding lactating cows control ration plus about 100 g sorbitol per day, 28 day test period
Format: in vivo, Holstein cows
Text: In this example, twenty Holstein cows averaging about thirty days in milk each, and thus in early lactation, were arranged in a randomized complete block design. Ten of the twenty cows were orally fed a control ration, and the other ten cows were orally fed a test ration that consisted of the control ration plus about 100 grams of sorbitol per day per cow. The cows were blocked by parity milk production, based upon the level of milk production by individual cows, after being in milk for fifteen to twenty days. After being blocked by parity milk production, the cows were randomly allotted to the control ration feeding or to the test ration feeding. The components of the control ration used in this example are shown in Table 1: The control ration was placed in the feeding troughs of the cattle once daily in the morning. When the test ration was to be provided to the test cattle, sorbitol was top dressed and lightly mixed into the control ration in the feeding trough of each cow being supplied with the test ration dosage of about 100 grams of sorbitol per cow per day, about one hour after the control ration was placed in the feeding trough. Then, the control ration and the test ration were lightly mixed in front of the cows six times per day to encourage additional feed ingestion by the cattle. Leftover rations from the previous day's feeding were collected and weighed from each feeding trough prior to feeding the test cattle the next day. The cows received a sufficient amount of the control ration to ensure that at least about ten weight percent, based upon the amount of control ration provided at the beginning of each day, remained per day for each test cow. The amount of sorbitol that was top dressed in the control ration to form the test ration was adjusted upward to account for the excess of control ration provided to ensure that the cows ingested the test ration dosage of about 100 grams of sorbitol per cow per day. Feed refusals were measured daily, and water was supplied ad libitum. […] Each cow was milked three times daily and the weight of produced milk was recorded at each milking. The milk was sampled once per day (⅓ of the sample volume from each milking) and was analyzed for protein, fat, lactose, and total solids, in accordance with the property determination and characterization techniques presented above. The milk production and milk component data was analyzed using the general linear model (GLM) statistical procedure of SAS® statistical analysis software for a randomized, complete block design that included both the particular feed regimen and the week of the test period in the model statement. […] Additionally, all data was analyzed to determine the mean of the data for each variable under consideration over the entire experimental period. […]

## OC[C@@H](O)[C@@H](O)[C@H](O)[C@@H](O)CO [sorbitol]
About 100 g sorbitol/day/cow mixed with control ration, mean over 28 days, control 47.2, P 0.54
  Dry Matter Intake: 45.6 pounds/day/cow
About 100 g sorbitol/day/cow mixed with control ration, mean over 28 days, control 88.9, P 0.02
  Milk Production: 93.5 pounds/day/cow
About 100 g sorbitol/day/cow, P 0.54
  difference in dry matter intake between control ration and test ration (FIG. 1): statistically insignificant
About 100 g sorbitol/day/cow, weekly means over four weeks
  daily milk production at each weekly data point versus control cows (FIG. 2): significant increase
